The values below are quoted from earlier work in patent US20180373846A1, “METHODS AND SYSTEMS FOR ORGANIC SOLUTE SAMPLING OF AQUEOUS AND HETEROGENEOUS ENVIRONMENTS” (University of Maryland, Baltimore, priority 2014, published 2018).

The conditions of data set [1]: experimental hydration free energy.
For data set [2] the following is noted: Table 2, reference 31.
The target of another data set is T4-L99A (Enterobacteria phage T4, UniProt P00720, L99A).
A further data set addresses β2AR (Homo sapiens, UniProt P07550). To be noted: experimental, from cited references.

As to `CC=O` [Acetaldehyde, acetaldehyde], the “HFE^exp” value in data set [1] was -3.5 kcal/mol. In addition, the “HFE^fep” value in data set [2] was -4.43 kcal/mol.

With `CC(=O)O` [Acetate], in data set [1], the “HFE^exp” value is -79.1 kcal/mol. Further, in data set [2], the “HFE^fep” value was -96.5 kcal/mol.

`c1ccccc1` [Benzene, benzene]: at T4-L99A, the experimental binding affinity was -5.19 ± 0.16 kcal/mol. Moreover, the “HFE^exp” value in data set [1] is -0.83 kcal/mol. Further, in data set [2], the “HFE^fep” value was -0.71 kcal/mol.

For the compound `NC=O` [Formamide, formamide], in data set [1], the “HFE^exp” value was -14 kcal/mol. The “HFE^fep” value in data set [2] was -10.71 kcal/mol.

Turning to `c1c[nH]cn1` [Imidazole, imidazole], the “HFE^fep” value in data set [2] was -12.55 kcal/mol.

`CO` [Methanol, methanol]: in data set [1], the “HFE^exp” value was -5.1 kcal/mol. The “HFE^fep” value in data set [2] was -6.16 kcal/mol.

As for `CN` [Methylammonium, methylammonium], the “HFE^exp” value in data set [1] was -71.3 kcal/mol. Also, the “HFE^fep” value in data set [2] is -52.0 kcal/mol.

For `Nc1c(Cl)cc([C@@H](O)CNCCCCCCOCCc2ccccn2)cc1Cl` [Picumeterol], the ΔGbind on β2AR is given as −12.23.

On to `CC(C)NCC(O)COc1cccc2[nH]ccc12` (centres unmarked) [Pindolol], for which, at β2AR, the ΔGbind is on record as −12.43.

On to `CCC` [Propane, propane], for which the “HFE^exp” value in data set [1] is 1.96 kcal/mol. Besides, in data set [2], the “HFE^fep” value is listed as 1.60 kcal/mol.

Take `O` [Water, water]: the “HFE^exp” value in data set [1] was -5.6 kcal/mol.

Take Hydroxybenzyl isoproterenol: the ΔGbind on β2AR is −9.72.
